Source: patent publication US10118902B2 (Sanford Burnham Prebys Medical Discovery Institute, priority 2014, dated 2018)

What follows are compounds tested against neurotensin receptor 1 (NTR1) (Homo sapiens (Human), UniProt P30989) (assay: NTR1 dose response, high-content imaging beta-arrestin-GFP assay in NTR1-U2OS cells). Conditions: read-out: EC50.
Assay type: cell-based
From the text: The cell lines utilized in the high-content imaging assays, which include the NTR1-, NTR2-, and GPR35-U2OS osteosarcomas, were obtained from the laboratory of Dr. Lawrence Barak at the Duke University Medical Center. The media used in the culture of the cell lines, as well as the assays themselves, consisted of Minimum Essential Medium (15-010-CM) and L-glutamine (25-005-CL) from Cellgro/Mediatech (Manassas, Va.), fetal bovine serum (SH30396.03) from Hyclone (Logan, Utah), penicillin-streptomycin solution (PS-20) from Omega Scientific in Tarzana, Calif., G418 (ant-gn-1) from Invivogen (San Diego, Calif.), and zeocin (R250-01) from Invitrogen (Carlsbad, Calif.). Cell lines were cultured in T225 tissue culture flasks (431082) supplied by Corning (Corning, N.Y.). Additional reagents employed include Dulbecco's Phosphate-Buffered Saline (DPBS) (21-031CV) from Cellgro/Mediatech, Trypsin-EDTA 0.05% (25300) from Invitrogen, paraformaldehyde (30528954) from Acros Organics (Geel, Belgium), Hoechst 33342 (H3570) from Invitrogen. The high-content assays were run in 1536-well plates (29326) supplied by Aurora Biotechnology (Poway, Calif.) and utilized aluminum plate seals (T592100) from E&K Scientific (Santa Clara, Calif.). […]
The high-content imaging based NTR1 primary screen in 1536-well format was utilized to assay the MLSMR library of chemical entities in the following manner. On day one, 4 uL of a cell suspension containing 350,000 NTR1-U2OS cells per mL is added to each well of a 1536-well assay plate. Cells are plated in MEM medium containing 2.5% Fetal Bovine Serum, 1% Penicillin/Streptomycin solution, 1% L-Glutamine, 400 ug/mL G418, and 200 ug/mL Zeocin. The assay plates are then incubated overnight at 37° C., under 5% CO2. Following the overnight incubation, a volume of 60 nL of the compounds at 2 mM in DMSO (final 20 μM, 1% DMSO) was transferred to columns 5-48 of the assay plates using a LabCyte Echo Liquid Handler. Next, 60 nL of DMSO were dispensed to columns 1-4, which served as the positive and neutral control wells. […] The assay plates were centrifuged on an Eppendorf 5810 centrifuge at 1000 rpm for 1 min to ensure even liquid levels in the wells of the assay plates. The assay plates were then returned to the incubator for 1 hour. Following the hour-long incubation at 37° C., the cells in each well were fixed with 4 uL of 6% paraformaldehyde added with a Multidrop Combi. The assay plates were centrifuged as before and incubated at room temperature for 1 hour. On the Kalypsys, plates were then aspirated down to 2.5 uL per well and washed twice with 11 uL per well of DPBS, followed by a final aspiration to 2.5 uL per well. On the Combi dispenser, 5 uL of 5 ug/mL Hoechst 33342 diluted in DPBS was added to each well of assay plates. The plates were again centrifuged as previously described, sealed, and incubated for at least 1 hour prior to being loaded on a PerkinElmer Opera QEHS.
Image acquisition was performed with a 45 plate capacity loader/stacker and the following settings: 40×0.6 NA air objective, acquisition camera set to 2-by-2 binning for an image size of 688 by 512 pixels, beta-arrestin-GFP acquired using 488 nm laser excitation and 540/75 nm emission filters, DAPI (nuclei) using 365 nm Xenon lamp excitation and 450/50 nm emission filters, 3 fields per well. Image analysis was performed using the Acapella Spot Detection Algorithm. For analysis settings and the metrics employed in the data analyses, please refer to supplemental information.
Compounds that were successfully confirmed in quadruplicate at 20 uM were then run in dose response in the primary assay. As with the single concentration hit confirmation, the assay was performed in an identical manner as the primary screen with the following modifications. […]

Chain of neurotensin receptor 1 (NTR1) (P30989 whole entry, species assumed): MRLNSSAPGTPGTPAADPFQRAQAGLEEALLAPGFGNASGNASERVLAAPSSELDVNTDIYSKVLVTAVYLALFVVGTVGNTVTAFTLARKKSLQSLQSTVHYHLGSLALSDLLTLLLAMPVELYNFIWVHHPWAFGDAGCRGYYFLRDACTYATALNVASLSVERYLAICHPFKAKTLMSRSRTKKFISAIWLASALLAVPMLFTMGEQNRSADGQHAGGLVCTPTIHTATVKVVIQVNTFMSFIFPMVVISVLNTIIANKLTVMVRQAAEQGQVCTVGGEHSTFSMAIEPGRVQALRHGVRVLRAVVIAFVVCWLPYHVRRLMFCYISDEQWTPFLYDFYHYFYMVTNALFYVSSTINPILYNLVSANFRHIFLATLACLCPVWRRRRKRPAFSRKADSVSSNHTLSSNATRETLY

Row | SMILES | EC50 [nM]
1 | CN(C)c1ccccc1C1CCN(c2nc(C3(F)CCC3)nc3ccc(N(C)CCN4CCOCC4)cc23)CC1 [Example 62, [4-[4-(2-dimethylamino-phenyl)-piperidin-1-yl]-2-(1-fluoro-cyclobutyl)-quinazolin-6-yl]-methyl-(2-morpholin-4-yl-ethyl)-amine] | 500 to 2000
2 | CN(C)c1ccccc1C1CCN(c2nc(C3(C)CC3)nc3ccc(N(C)CCN4CCOCC4)cc23)CC1 [Example 27] | > 10000
3 | COc1ccccc1C1CCN(c2nc(C3CC3)nc3c(C)cc(N(C)CCO)cc23)CC1 [Example 125, 2-({2-cyclopropyl-4-[4-(2-methoxy-phenyl)-piperidin-1-yl]-8-methyl-quinazolin-6-yl}-methyl-amino)-ethanol] | < 500
4 | COc1ccccc1C1CCN(c2nc(C3CC3)nc3ccc(CN(C)CCN4CCOCC4)cc23)CC1 [Example 88, {2-cyclopropyl-4-[4-(2-methoxy-phenyl)-piperidin-1-yl]-quinazolin-6-ylmethyl}-methyl-(2-morpholin-4-yl-ethyl)-amine] | > 10000
5 | COc1ccccc1C1CCN(c2nc(C3CC3)nc3cnc(N(C)CCO)cc23)CC1 [Example 137, 2-({2-cyclopropyl-4-[4-(2-methoxy-phenyl)-piperidin-1-yl]-pyrido[3,4-d]pyrimidin-6-yl}-methyl-amino)-ethanol] | < 500
6 | COc1ccccc1C1CCN(c2nc(C3CC3)nc3ccc(N4CC[C@H](OC)C4)cc23)CC1 [Example 84, (S)-2-cyclopropyl-4-(4-(2-methoxyphenyl)piperidin-1-yl)-6-(3-methoxypyrrolidin-1-yl)quinazoline] | 500 to 2000
7 | COCCN(C)c1ccc2nc(C3CC3)nc(N3CCC(c4ccccc4N(C)C)CC3)c2c1 [Example 11, {2-cyclopropyl-4-[4-(2-dimethylamino-phenyl)-piperidin-1-yl]-quinazolin-6-yl}-(2-methoxy-ethyl)-methyl-amine] | 2000 to 10000
8 | COc1ccccc1C1CCN(c2nc(C3CC3)nc3cc(Cl)c(N(C)CCO)cc23)CC1 [Example 107, 2-({7-chloro-2-cyclopropyl-4-[4-(2-methoxy-phenyl)-piperidin-1-yl]-quinazolin-6-yl}-methyl-amino)-ethanol] | 500 to 2000
9 | COc1ncccc1C1CCN(c2nc(C3(F)CC3)nc3ccc(N(C)CCO)cc23)CC1 [Example 207, 2-{[2-(1-Fluoro-cyclopropyl)-4-(2-methoxy-3′,4′,5′,6′-tetrahydro-2′H-[3,4′]bipyridinyl-1′-yl)-quinazolin-6-yl]-methyl-amino}-ethanol] | 500 to 2000
10 | COc1ccccc1C1CCN(c2nc(C3(F)CC3)nc3ccc(N(C)CCO)cc23)CC1 [Example 15, 2-({2-(1-Fluoro-cyclopropyl)-4-[4-(2-methoxy-phenyl)-piperidin-1-yl]-quinazolin-6-yl}-methyl-amino)-ethanol] | < 500
11 | CN(C)CCN(C)c1ccc2nc(C3CC3)nc(N3CCC(c4ccccc4N(C)C)CC3)c2c1 [Example 14, N-{2-cyclopropyl-4-[4-(2-dimethylamino-phenyl)-piperidin-1-yl]-quinazolin-6-yl}-N,N′,N′-trimethyl-ethane-1,2-diamine] | 2000 to 10000
12 | CCCN(C)c1ccc2nc(C3CC3)nc(N3CC4(CN(c5ccccc5OC)C4)C3)c2c1 [Example 100, {2-cyclopropyl-4-[6-(2-methoxy-phenyl)-2,6-diaza-spiro [3.3]hept-2-yl]-quinazolin-6-yl}-methyl-propyl-amine] | 2000 to 10000
13 | CN(C)c1ccccc1C1CCN(c2nc(C3(C(F)(F)F)CCC3)nc3ccc(N(C)CCO)cc23)CC1 [Example 65, 2-{[4-[4-(2-Dimethylamino-phenyl)-piperidin-1-yl]-2-(1-trifluoromethyl-cyclobutyl)-quinazolin-6-yl]-methyl-amino}-ethanol] | 2000 to 10000
14 | COc1ccccc1C1CCN(c2nc(OC3CCC3)nc3ccc(N(C)CCO)cc23)CC1 [Example 193, 2-((2-cyclobutoxy-4-(4-(2-methoxyphenyl)piperidin-1-yl)quinazolin-6-yl)(methyl)amino)ethanol] | 500 to 2000
15 | CCN(C)c1ccc2nc(C3CC3)nc(N3CCC(c4ccccc4N4CCC4)CC3)c2c1 [Example 4, {4-[4-(2-azetidin-1-yl-phenyl)-piperidin-1-yl]-2-cyclopropyl-quinazolin-6-yl}-ethyl-methyl-amine] | > 10000
16 | COc1ccccc1C1CCN(c2nc(C#CC3CC3)nc3ccc(N(C)CCO)cc23)CC1 [Example 136, 2-((2-(cyclopropylethynyl)-4-(4-(2-methoxyphenyl)piperidin-1-yl)quinazolin-6-yl)(methyl)amino)ethanol] | 2000 to 10000
17 | COCCN(C)c1ccc2nc(C3CCC3)nc(N3CCC(c4ccccc4OC)CC3)c2c1 [Example 44] | 2000 to 10000
18 | COc1ccccc1C1CCN(c2nc(C3CC3)nc3ccc(CN(C)CCO)cc23)CC1 [Example 89, 2-({2-cyclopropyl-4-[4-(2-methoxy-phenyl)-piperidin-1-yl]-quinazolin-6-ylmethyl}-methyl-amino)-ethanol] | > 10000
19 | COc1ccccc1C1CCN(c2nc(C3(C(F)(F)F)CCC3)nc3ccc(N(C)CCO)cc23)CC1 [Example 63, 2-{[4-[4-(2-methoxy-phenyl)-piperidin-1-yl]-2-(1-trifluoromethyl-cyclobutyl)-quinazolin-6-yl]-methyl-amino}-ethanol] | 500 to 2000
20 | COc1cc(F)ccc1C1CCN(c2nc(C3CC3)nc3ccc(N(C)CCO)cc23)CC1 [Example 108, 2-({2-cyclopropyl-4-[4-(4-fluoro-2-methoxy-phenyl)-piperidin-1-yl]-quinazolin-6-yl}-methyl-amino)-ethanol] | 500 to 2000
21 | COc1ccccc1N1CC2(C1)CN(c1nc(C3CC3)nc3ccc(N(C)CCN4CCOCC4)cc13)C2 [Example 101, {2-cyclopropyl-4-[6-(2-methoxy-phenyl)-2,6-diaza-spiro [3.3]hept-2-yl]-quinazolin-6-yl}-methyl-(2-morpholin-4-yl-ethyl)-amine] | > 10000
22 | COc1ccccc1C1CCN(c2nc(C3(F)CC3)nc3ccc(N(C)CCN4CCOCC4)cc23)CC1 [Example 17, {2-(1-fluoro-cyclopropyl)-4-[4-(2-methoxy-phenyl)-piperidin-1-yl]-quinazolin-6-yl}-methyl-(2-morpholin-4-yl-ethyl)-amine] | 500 to 2000
23 | CN(C)c1ccccc1C1CCN(c2nc(C3(C(F)(F)F)CC3)nc3ccc(N(C)CCN4CCOCC4)cc23)CC1 [Example 50, [4-[4-(2-dimethylamino-phenyl)-piperidin-1-yl]-2-(1-trifluoromethyl-cyclopropyl)-quinazolin-6-yl]-methyl-(2-morpholin-4-yl-ethyl)-amine] | > 10000
24 | COc1ccccc1C1CCN(c2nc(C3(F)CC3)nc3cc(F)c(N(C)CCO)cc23)CC1 [Example 171] | < 500
25 | CCCN(C)c1ccc2nc(C3CC3)nc(N3CCC(c4ccccc4OC)CC3=O)c2c1 (stereo not shown) [Example 102, 1-[2-cyclopropyl-6-(methyl-propyl-amino)-quinazolin-4-yl]-4-(2-methoxy-phenyl)-piperidin-2-one] | > 10000
26 | COC(=O)Cc1c(C)nc(C2CC2)nc1N1CCC(c2ccccc2OC)CC1 [Example 156, Methyl 2-(2-cyclopropyl-4-(4-(2-methoxyphenyl)piperidin-1-yl)-6-methylpyrimidin-5-yl)acetate] | > 10000
27 | COc1ccccc1C1CCN(c2nc(C3CCCC3)nc3ccc(N(C)CCN4CCOCC4)cc23)CC1 [Example 41] | > 10000
28 | CN(CCN1CCOCC1)c1ccc2nc(C3CC3)nc(N3CCC(c4ccccc4N4CCC4)CC3)c2c1 [Example 8, {4-[4-(2-azetidin-1-yl-phenyl)-piperidin-1-yl]-2-cyclopropyl-quinazolin-6-yl}-methyl-(2-morpholin-4-yl-ethyl)-amine] | 500 to 2000
